Test results published in patent US9090600B2, “Fungicidal 4-substituted-3-{phenyl[(heterocyclylmethoxy)imino]methyl}-1,2,4-oxadizol-5(4H)-one derivatives” (BAYER INTELLECTUAL PROPERTY GMBH, priority 2011, dated 2015).
Read-outs that look alike come from different tables or passages of the source. Marks after values point to notes of the source that are not given here.

How the values were obtained:
Phytophthora infestans [1] = format: in vivo; conditions: tomato, preventive spray, 100 ppm of active ingredient, evaluated 7 days after inoculation
[2] = Measurement of log P values by HPLC on reversed phase columns (EEC directive 79/831 Annex V.A8); conditions: for chromatographic logP: pH 2.7
Plasmopara viticola = assay: Plasmopara test (grapevines)/preventive; format: in vivo; conditions: preventive spray, 10 ppm of active ingredient, evaluated 6 days after inoculation
Method in brief: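 Young grapevines sprayed preventively with compound formulated in acetone/dimethylacetamide with emulsifier, diluted in water, then inoculated with P. viticola spores after drying. Held 1 day at ~20 °C/100% RH, 4 days in greenhouse at ~21 °C/~90% RH, then misted for 1 day. Efficacy scored 6 days post-inoculation (0% = untreated control, 100% = no disease).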

Phytophthora infestans [3] = format: in vivo; conditions: tomato plants, spray, 500 ppm, grading 5 days after contamination
[4] = test system: Mycosphaerella graminicola; assay: In vivo test on Mycosphaerella graminicola (wheat leaf spot); conditions: wheat plants, spray, 500 ppm, grading 21 to 28 days after contamination
Method: The active ingredients tested are prepared by homogenization in a mixture of acetone/tween/DMSO, then diluted with water to obtain the desired active material concentration.
Wheat plants (Scipion variety), sown on a 50/50 peat soil-pozzolana substrate in starter cups and grown at 22° C. (12 h)/20° C. (12 h), are treated at the 1-leaf stage (10 cm tall) by spraying with the aqueous suspension described above. Plants, used as controls, are treated with an aqueous solution not containing the active material.
After 24 hours, the plants are contaminated by spraying them with an aqueous suspension of cryopreserved Mycosphaerella graminicola spores (500.000 spores per ml). The contaminated wheat plants are incubated for 72 hours at 18° C. and at 100% relative humidity, and then for 21 to 28 days at 90% relative humidity.
Grading (% of efficacy) is carried out 21 to 28 days after the contamination, in comparison with the control plants.
(§1) Under these conditions, good (at least 70%) or total protection is observed at a dose of 500 ppm with the following compounds: […]

Uromyces appendiculatus = assay: In vivo test on Uromyces appendiculatus (brown rust of bean); conditions: Saxa variety plants, spray, 500 ppm, grading 10 days after contamination
Method: (§2) The active ingredients tested are prepared by homogenization in a mixture of acetone/tween/DMSO, then diluted with water to obtain the desired active material.
[…] (Saxa variety) sown on 50/50 peat soil-pozzolana substrate in starter cups and grown at 24° C., are treated at the 2-leaf stage (9 cm tall) by spraying with the aqueous suspension described above.
(§3) Plants, used as controls, are treated with an aqueous solution not containing the active material.
(§4) After 24 hours, the plants are contaminated by spraying the leaves with an aqueous suspension of Uromyces appendiculatus spores (150.000 spores per ml). The spores are collected from a 10-day-old contaminated […] and are suspended in water containing 2.5 ml/l of tween 80 10%. The contaminated […] are incubated for 24 hours at 20° C. and at 100% relative humidity, and then for 10 days at 20° C. and at 70% relative humidity. Grading is carried out 10 days after the contamination, in comparison with the control plants.
as §1

Puccinia recondita = assay: In vivo test on Puccinia recondita (brown rust); conditions: wheat plants, spray, 500 ppm, grading 10 days after contamination
Method: as §2
Wheat plants (Scipion variety) sown on 50/50 peat soil-pozzolana substrate in starter cups and grown at 22° C. (12 h)/20° C. (12 h), are treated at the 1-leaf stage (10 cm tall) by spraying with the aqueous suspension described above.
as §4, with “Plants, used as controls, are treated with an aqueous solution not containing the active material. After” for “After”, “Puccinia recondite” for “Uromyces appendiculatus”, “(100.000” for “(150.000”
as §1

[5] = pH 2.7
Pyrenophora teres = assay: In vivo test on Pyrenophora teres (barley net blotch); conditions: barley plants, spray, 500 ppm, grading 12 days after contamination
Method: The active ingredients tested are prepared by homogenization in a mixture of acetone/Tween/DMSO, then diluted with water to obtain the desired active material concentration.
Barley plants (Plaisant variety), sown on a 50/50 peat soil-pozzolana substrate in starter cups and grown at 22° C. (12 h)/20° C. (12 h), are treated at the 1-leaf stage (10 cm tall) by spraying with the active ingredient prepared as described above.
as §3
After 24 hours, the plants are contaminated by spraying them with an aqueous suspension of Pyrenophora teres spores (12.000 spores per ml). The spores are collected from a 12-day-old culture.
The contaminated barley plants are incubated for 24 hours at about 20° C. and at 100% relative humidity, and then for 12 days at 80% relative humidity.
Grading is carried out 12 days after the contamination, in comparison with the control plants.
Under these conditions, good (at least 70%) is observed at a dose of 500 ppm with the following compounds: […]

CCCCOC(=O)Nc1nc(CO/N=C(/c2ccccc2)c2noc(=O)n2C)cs1 [Example 14, butyl {4-[({[(Z)-(4-methyl-5-oxo-4,5-dihydro-1,2,4-oxadiazol-3-yl)(phenyl)methylene]amino}oxy)methyl]-1,3-thiazol-2-yl}carbamate]
Eff. % (Phytophthora infestans [1]): 95% | chromatographic logP [2]: 3.73 | Eff. % (Plasmopara viticola): 96%

CCCCOC(=O)Nc1cccc(CO/N=C(/c2ccccc2)c2noc(=O)n2C)n1 [Example 18, butyl {6-[({[(Z)-(4-methyl-5-oxo-4,5-dihydro-1,2,4-oxadiazol-3-yl)(phenyl)methylene]amino}oxy)methyl]pyridin-2-yl}carbamate]
Eff. % (Phytophthora infestans [1]): 95% | chromatographic logP [2]: 4.04 | Eff. % (Plasmopara viticola): 100%

CC(Oc1ccccc1)C(=O)Nc1nc(CO/N=C(/c2ccccc2)c2noc(=O)n2C)cs1 (centres unmarked) [Example 19]
Eff. % (Phytophthora infestans [1]): 95% | LogP ([2]; method [a], HPLC on reversed phase columns): 3.71 [a] | Eff. % (Plasmopara viticola): 97%

Cn1c(/C(=N\OCc2cccc(NC(=O)OC(C)(C)C)n2)c2ccccc2)noc1=O [Example 21, tert-butyl {6-[({[(Z)-(4-methyl-5-oxo-4,5-dihydro-1,2,4-oxadiazol-3-yl)(phenyl)methylene]amino}oxy)methyl]pyridin-2-yl}carbamate]
Eff. % (Phytophthora infestans [1]): 97% | chromatographic logP [2]: 3.96 | Eff. % (Plasmopara viticola): 100%

CC(Nc1cccc(CO/N=C(/c2ccccc2)c2noc(=O)n2C)n1)c1ccccc1 (centres unmarked) [Example 43, 4-methyl-3-{(Z)-phenyl[({6-[(1-phenylethyl)amino]pyridin-2-yl}methoxy)imino]methyl}-1,2,4-oxadiazol-5(4H)-one]
Eff. % (Phytophthora infestans [3]): 100% | Eff. % [4]: 91% | chromatographic logP [2]: 2.86 | Eff. % (Uromyces appendiculatus): 75% | Eff. % (Puccinia recondita): 94%

CCCCCCOC(=O)Nc1nc(CO/N=C(/c2ccccc2)c2noc(=O)n2C)cs1 [Example 53]
Eff. % (Phytophthora infestans [3]): 73% | LogP [5]: 4.51 [a] | Eff. % (Pyrenophora teres): 70%

Cn1c(/C(=N\OCc2cccc(NC(=O)CCC3CC3)n2)c2ccccc2)noc1=O [Example 62]
Eff. % (Phytophthora infestans [3]): 99% | LogP [5]: 3.51 [a] | Eff. % (Uromyces appendiculatus): 71%

CCC(=O)Nc1cccc(CO/N=C(/c2ccccc2)c2noc(=O)n2C)n1 [Example 71]
Eff. % (Phytophthora infestans [3]): 99% | LogP [5]: 2.77 [a] | Eff. % [4]: 88% | Eff. % (Pyrenophora teres): 70%

Cn1c(/C(=N\OCc2cccc(NC(=O)CCC3CCCC3)n2)c2ccccc2)noc1=O [Example 84]
Eff. % (Phytophthora infestans [3]): 100% | LogP [5]: 4.36 [a] | Eff. % (Pyrenophora teres): 70%

C=CCCCCCC(=O)Nc1cccc(CO/N=C(/c2ccccc2)c2noc(=O)n2C)n1 [Example 99]
Eff. % (Phytophthora infestans [3]): 99% | LogP [5]: 4.3 [a] | Eff. % (Uromyces appendiculatus): 71%

CC(Oc1ccccc1Br)C(=O)Nc1nc(CO/N=C(/c2ccccc2)c2noc(=O)n2C)cs1 (centres unmarked) [Example 113]
Eff. % (Phytophthora infestans [3]): 90% | LogP [5]: 4.2 [a] | Eff. % (Uromyces appendiculatus): 79%

Cc1cccc(/C(=N/OCc2cccc(NC(=O)OCc3ccccc3)n2)c2noc(=O)n2C)c1 [Example 117]
LogP [5]: 4.31 [a] | Eff. % [4]: 90% | Eff. % (Pyrenophora teres): 79%

CCCCC(=O)Nc1cccc(CO/N=C(/c2cccc(F)c2)c2noc(=O)n2C)n1 [Example 140]
Eff. % (Phytophthora infestans [3]): 100% | LogP [5]: 3.61 [a] | Eff. % (Uromyces appendiculatus): 73% | Eff. % (Plasmopara viticola): 85% | Eff. % (Puccinia recondita): 86%

COc1ccc(/C(=N/OCc2cccc(NC(=O)OC(C)CC(C)C)n2)c2noc(=O)n2C)cc1 (centres unmarked) [Example 185]
Eff. % (Phytophthora infestans [3]): 83% | LogP [5]: 4.72 [a] | Eff. % (Uromyces appendiculatus): 75% | Eff. % (Puccinia recondita): 78%

Cn1c(/C(=N\OCc2cccc(NC(=O)OC(C)(C)C)n2)c2cccc(F)c2)noc1=O [Example 206]
Eff. % (Phytophthora infestans [3]): 100% | LogP [5]: 4.09 [a] | Eff. % (Uromyces appendiculatus): 91% | Eff. % (Plasmopara viticola): 81%

CC(Oc1ccc(Br)cc1)C(=O)Nc1nc(CO/N=C(/c2ccccc2)c2noc(=O)n2C)cs1 (centres unmarked) [Example 216]
Eff. % (Phytophthora infestans [3]): 95% | LogP [5]: 4.17 [a] | Eff. % (Uromyces appendiculatus): 71%

C#CCCOC(=O)Nc1cccc(CO/N=C(/c2cccc(OC)c2)c2noc(=O)n2C)n1 [Example 228]
Eff. % (Phytophthora infestans [3]): 100% | LogP [5]: 3.33 [a] | Eff. % (Uromyces appendiculatus): 70% | Eff. % (Plasmopara viticola): 93% | Eff. % (Puccinia recondita): 81%

CCCC(C)(C)OC(=O)Nc1cccc(CO/N=C(/c2ccccc2)c2noc(=O)n2C)n1 [Example 233, 2-methylpentan-2-yl {6-[({[(Z)-(4-methyl-5-oxo-4,5-dihydro-1,2,4-oxadiazol-3-yl)(phenyl)methylene]amino}oxy)methyl]pyridin-2-yl}carbamate]
Eff. % (Phytophthora infestans [3]): 99% | chromatographic logP [2]: 4.77 | Eff. % (Plasmopara viticola): 78% | Eff. % (Puccinia recondita): 98%

Cc1cccc(C(=NOCc2cccc(NC(=O)OC3CCCCC3)n2)c2noc(=O)n2C)c1 [Example 250]
Eff. % (Phytophthora infestans [3]): 80% | LogP [5]: 4.82 [a] | Eff. % [4]: 96% | Eff. % (Pyrenophora teres): 79%

C=CCCC(=O)Nc1cccc(CON=C(c2ccccc2)c2noc(=O)n2C)n1 [Example 256]
Eff. % (Phytophthora infestans [3]): 100% | LogP [5]: 3.25 [a] | Eff. % (Pyrenophora teres): 90%

Cn1c(C(=NOCc2cccc(NC(=O)OCCc3ccccc3)n2)c2ccc(F)cc2)noc1=O [Example 258]
Eff. % (Phytophthora infestans [3]): 89% | LogP [5]: 4.24 [a] | Eff. % (Uromyces appendiculatus): 93% | Eff. % (Puccinia recondita): 81%

CC(C)C=CCCCCC(=O)Nc1cccc(CON=C(c2ccccc2)c2noc(=O)n2C)n1 [Example 268]
Eff. % (Phytophthora infestans [3]): 100% | LogP [5]: 5.06 [a] | Eff. % (Pyrenophora teres): 96%

CC(Oc1ccc(Cl)cc1)C(=O)Nc1nc(CO/N=C(/c2ccccc2)c2noc(=O)n2C)cs1 (centres unmarked) [Example 276]
Eff. % (Phytophthora infestans [3]): 98% | LogP [5]: 4.07 [a] | Eff. % (Uromyces appendiculatus): 89%

CCn1c(C(=NOCc2cccc(NC(=O)CC(C)C)n2)c2ccccc2)noc1=O [Example 280]
Eff. % (Phytophthora infestans [3]): 100% | LogP [5]: 3.7 [a] | Eff. % (Uromyces appendiculatus): 83% | Eff. % (Puccinia recondita): 98%

CCCCOC(=O)Nc1cccc(CO/N=C(/c2cccc(F)c2)c2noc(=O)n2C)n1 [Example 295]
Eff. % (Phytophthora infestans [3]): 97% | LogP [5]: 4.14 [a] | Eff. % (Uromyces appendiculatus): 70% | Eff. % (Plasmopara viticola): 89%

COCC(=O)Nc1cccc(CO/N=C(/c2ccccc2)c2noc(=O)n2C)n1 [Example 379]
Eff. % (Phytophthora infestans [3]): 100% | LogP [5]: 2.73 [a] | Eff. % (Pyrenophora teres): 100%

CCOCCOC(=O)Nc1cccc(CO/N=C(/c2ccccc2)c2noc(=O)n2C)n1 [Example 400]
Eff. % (Phytophthora infestans [3]): 100% | LogP [5]: 3.17 [a] | Eff. % (Uromyces appendiculatus): 94%

CCCCCOC(=O)Nc1cccc(CO/N=C(/c2cccc(F)c2)c2noc(=O)n2C)n1 [Example 406]
Eff. % (Phytophthora infestans [3]): 94% | LogP [5]: 4.53 [a] | Eff. % [4]: 79% | Eff. % (Uromyces appendiculatus): 79% | Eff. % (Plasmopara viticola): 79% | Eff. % (Puccinia recondita): 81%
